In ChEMBL document CHEMBL1255490, “In vitro activities of DC-159a, a novel fluoroquinolone, against Mycobacterium species” (Antimicrob Agents Chemother, 2010):
Values after ≈ are worked out from the molar mass of the structure shown.

Experiments:
Mycobacterium kansasii = assay: Antimycobacterial activity against Mycobacterium kansasii after 7 days by agar dilution method; format: functional; conditions: 168 h
[1] = tested on: Mycobacterium tuberculosis; assay: Antimycobacterial activity against drug-susceptible Mycobacterium tuberculosis after 21 days by agar dilution method; format: functional; conditions: 504 h
Mycobacteroides chelonae = assay: Antimycobacterial activity against Mycobacterium chelonae after 3 days by agar dilution method; format: functional; conditions: 72 h
[2] = tested on: Mycobacterium intracellulare; assay: Antimycobacterial activity against Mycobacterium intracellular serovar 16 after 21 days by agar dilution method; format: functional; conditions: serovar 16, 504 h
[3] = tested on: Mycolicibacterium fortuitum; assay: Antimycobacterial activity against Mycobacterium fortuitum after 3 days by agar dilution method; format: functional; conditions: 72 h
[4] = tested on: Mycobacteroides abscessus; assay: Antimycobacterial activity against Mycobacterium abscessus after 3 days by agar dilution method; format: functional; conditions: 72 h
Mycobacterium avium [5] = assay: Antimycobacterial activity against Mycobacterium avium serovar 4 after 14 days by agar dilution method; format: functional; conditions: serovar 4, 336 h
Mycobacterium avium [6] = assay: Antimycobacterial activity against Mycobacterium avium serovar 8 after 14 days by agar dilution method; format: functional; conditions: serovar 8, 336 h
[7] = AUC (0 to 24 hrs) in monkey at 5 mg/kg, po; format: ADME, organism-based, Macaca mulatta; set-up: time < 24 hr, dose 5 mg/kg, route oral; conditions: rhesus monkey, plasma
[8] = Cmax in monkey at 5 mg/kg, po; format: ADME, organism-based, Macaca mulatta; set-up: dose 5 mg/kg, route oral; conditions: rhesus monkey, in vivo

| Structure (SMILES) | MIC50 (Mycobacterium kansasii) [µg/mL] | MIC90 (Mycobacterium kansasii) [µg/mL] | MIC50 [1] [µg/mL] | MIC90 [1] [µg/mL] | MIC50 (Mycobacteroides chelonae) [µg/mL] | MIC90 (Mycobacteroides chelonae) [µg/mL] | MIC50 [2] [µg/mL] | MIC90 [2] [µg/mL] | MIC50 [3] [µg/mL] | MIC90 [3] [µg/mL] | MIC50 [4] [µg/mL] | MIC90 [4] [µg/mL] | MIC50 (Mycobacterium avium [5]) [µg/mL] | MIC90 (Mycobacterium avium [5]) [µg/mL] | MIC50 (Mycobacterium avium [6]) [µg/mL] | MIC90 (Mycobacterium avium [6]) [µg/mL] | MIC (Mycobacteroides chelonae) [µg/mL] | also measured |
| --- | --- | --- | --- | --- | --- | --- | --- | --- | --- | --- | --- | --- | --- | --- | --- | --- | --- | --- |
| COc1c(N2C[C@@H]3CCCN[C@@H]3C2)c(F)cc2c(=O)c(C(=O)O)cn(C3CC3)c12 [MOXIFLOXACIN] | 0.125 (≈ 0.311 µM) | 0.25 (≈ 0.623 µM) | 0.25 (≈ 0.623 µM) | 0.25 (≈ 0.623 µM) | 32 (≈ 79.7 µM) | 32 (≈ 79.7 µM) | 2 (≈ 4.98 µM) | 8 (≈ 19.9 µM) | 0.125 (≈ 0.311 µM) | 0.25 (≈ 0.623 µM) | 64 (≈ 159 µM) | 128 (≈ 319 µM) | – | – | – | – | – | – |
| C[C@H]1COc2c(N3CCN(C)CC3)c(F)cc3c(=O)c(C(=O)O)cn1c23.C[C@H]1COc2c(N3CCN(C)CC3)c(F)cc3c(=O)c(C(=O)O)cn1c23.O [LEVOFLOXACIN] | 0.25 | 1 | 0.5 | 0.5 | 32 | 64 | 8 | 32 | 0.25 | 0.5 | 64 | 128 | 8 | 32 | 8 | 32 | – | MIC (Mycobacterium kansasii): 0.25 µg/mL |
| COc1c(N2CCNC(C)C2)c(F)cc2c(=O)c(C(=O)O)cn(C3CC3)c12 (configuration not stated) [GATIFLOXACIN] | 0.125 (≈ 0.333 µM) | 0.5 (≈ 1.33 µM) | 0.125 (≈ 0.333 µM) | 0.25 (≈ 0.666 µM) | 16 (≈ 42.6 µM) | 32 (≈ 85.2 µM) | 4 (≈ 10.7 µM) | 16 (≈ 42.6 µM) | 0.125 (≈ 0.333 µM) | 0.25 (≈ 0.666 µM) | 32 (≈ 85.2 µM) | 64 (≈ 170 µM) | 2 (≈ 5.33 µM) | 8 (≈ 21.3 µM) | 2 (≈ 5.33 µM) | 8 (≈ 21.3 µM) | – | – |
| CO[C@H]1/C=C/O[C@@]2(C)Oc3c(C)c(O)c4c(O)c(c(/C=N/N5CCN(C)CC5)c(O)c4c3C2=O)NC(=O)/C(C)=C\C=C\[C@H](C)[C@H](O)[C@@H](C)[C@@H](O)[C@@H](C)[C@H](OC(C)=O)[C@@H]1C [RIFAMPIN] | 0.25 (≈ 0.304 µM) | 0.25 (≈ 0.304 µM) | 0.06 (≈ 0.0729 µM) | 0.125 (≈ 0.152 µM) | > 128 | > 128 | 2 (≈ 2.43 µM) | 32 (≈ 38.9 µM) | 32 (≈ 38.9 µM) | 64 (≈ 77.8 µM) | > 128 | > 128 | 32 (≈ 38.9 µM) | 128 (≈ 156 µM) | 32 (≈ 38.9 µM) | 128 (≈ 156 µM) | > 128 | MIC [4]: > 128 µg/mL |
| COc1c(N2CC3(CC3)[C@](C)(N)C2)c(F)cc2c(=O)c(C(=O)O)cn([C@@H]3C[C@@H]3F)c12 | 0.06 (≈ 0.143 µM) | 0.125 (≈ 0.298 µM) | 0.06 (≈ 0.143 µM) | 0.06 (≈ 0.143 µM) | 4 (≈ 9.54 µM) | 8 (≈ 19.1 µM) | 1 (≈ 2.38 µM) | 4 (≈ 9.54 µM) | 0.125 (≈ 0.298 µM) | 0.25 (≈ 0.596 µM) | 8 (≈ 19.1 µM) | 16 (≈ 38.1 µM) | 1 (≈ 2.38 µM) | 2 (≈ 4.77 µM) | 1 (≈ 2.38 µM) | 2 (≈ 4.77 µM) | 4 (≈ 9.54 µM) | AUC(0-t) at 24 h [7]: 16900 ng·h/mL; Cmax [8]: 2200 ng/mL |
